“Also recorded” adds a separate entry of the source.
How the values were obtained:
nociceptin receptor = target: T1, nociceptin receptor (Homo sapiens, UniProt P41146); experiment: Gi/o Glosensor assay at nociceptin receptor; format: cell-based
T1 construct: NIMH Psychoactive Drug Screening Program (PDSP)

μOR [1] = target: T2, μOR (Homo sapiens, UniProt P35372); experiment: β-arrestin recruitment at μOR without GRK2; format: cell-based
hERG ion channel = hERG ion channel (Homo sapiens, UniProt Q12809); experiment: Inhibition of hERG channel; format: biochemical
[2] = test system: Oprm1−/− and wild-type C57Bl/6J mice; experiment: Hot plate in μOR knockout mice and subcategorization of affective/reflexive pain; format: in vivo, mouse
Experimental: Analgesia in μOR knockout mice and subcategorization of affective/reflexive pain: Oprm1−/− and wild-type C57Bl/6J mice (male; 8-11 weeks) were acclimated to the testing environment and thermal-plate equipment for three non-consecutive days between 11 A.M. and 1 P.M. prior to any pharmacological studies. Acclimation was achieved by individually confining mice within an enclosed semi-transparent red plastic cylinder (10 cm D×15 cm H) on a raised metal-mesh rack (61 cm H) for 30 minutes, and then exposing each mouse to the thermal-plate equipment (non-heated; floor dimensions, 16.5×16.5 cm; Bioseb), while confined within a clear plastic chamber (16 L×16 W×30H cm). Acclimation exposure to the thermal plate lasted for 30 seconds, and exposure was repeated after 30 minutes to mimic the test day conditions. […] The same experimenter ([…] ) was present throughout the entire duration of habituation and testing to exclude possible olfaction-induced alterations in sensory thresholds.
Cutaneous application of a noxious stimulus, or time spent on a hot plate apparatus can broadly elicit several distinct behavioral responses: 1. Withdrawal reflexes: rapid reflexive retraction or digit splaying of the paw, 2. […] Paw withdrawal reflexes are classically measured in studies of hypersensitivity, and involve simple spinal cord and brainstem circuits. […]

[3] = Pharmacokinetics of PZM21 (serum and brain); format: in vivo, mouse; settings: 20 mg/kg subcutaneous
Experimental: Studies were performed by the Preclinical Therapeutics Core and the Drug Studies Unit at the University of California San Francisco.

C57BL/6J mice = experiment: Formalin injection assay; settings: PZM21 40 mg/kg
Experimental: Analgesia to formalin injection was carried out as described previously^66. Mice were first habituated for 20 minutes to the testing environment which included a home cage without bedding, food, and water. […] This was followed by injection of 20 μL of 1% formalin in 0.9% saline under the skin of the dorsal surface of the right hindpaw. Animals were returned to their home cage and behavioral responses were recorded for one hour. Nociception was estimated by measuring the cumulative time spent by animals licking the formalin-injected paw. As opioids classically display two phases of analgesic action, nociceptive behavior was measured during both the early phase (0 to 5 minutes) and the late phase (20 to 30 minutes).

μOR [4] = target: T2, μOR; experiment: biochemical; format: binding; set-up: expressed in transfected cells; host or cells: HEK293 membranes (Ki); Sf9 insect cell membranes (single-point screen); PDSP for analogs
Experimental: For a primary screen of selected molecules, binding to OR was assessed by measuring competition against the radioligand ^3H-diprenorphine (^3H-DPN). […] The reaction contained 40 fmol of μOR and was incubated in a buffer of 20 mM HEPES pH 7.5, 100 mM sodium chloride, and 0.1% bovine serum albumin for 1 hour at 25° C. To separate free from bound radioligand, reactions were rapidly filtered over Whatman GF/B filters with the aid of a Brandel harvester and ^3H-DPN counts were measured by liquid scintillation.

T2 sequence (P35372 whole entry): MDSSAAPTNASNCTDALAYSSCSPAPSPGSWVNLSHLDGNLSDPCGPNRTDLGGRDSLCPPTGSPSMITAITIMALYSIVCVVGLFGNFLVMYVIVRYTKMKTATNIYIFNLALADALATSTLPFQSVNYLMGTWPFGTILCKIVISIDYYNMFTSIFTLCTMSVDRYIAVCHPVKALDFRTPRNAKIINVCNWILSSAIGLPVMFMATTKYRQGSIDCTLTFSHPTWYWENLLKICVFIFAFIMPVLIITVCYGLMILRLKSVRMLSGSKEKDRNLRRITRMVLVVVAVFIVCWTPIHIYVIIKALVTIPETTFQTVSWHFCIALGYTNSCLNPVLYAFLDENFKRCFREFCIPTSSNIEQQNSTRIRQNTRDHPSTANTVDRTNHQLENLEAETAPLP
T1 sequence (P41146 whole entry): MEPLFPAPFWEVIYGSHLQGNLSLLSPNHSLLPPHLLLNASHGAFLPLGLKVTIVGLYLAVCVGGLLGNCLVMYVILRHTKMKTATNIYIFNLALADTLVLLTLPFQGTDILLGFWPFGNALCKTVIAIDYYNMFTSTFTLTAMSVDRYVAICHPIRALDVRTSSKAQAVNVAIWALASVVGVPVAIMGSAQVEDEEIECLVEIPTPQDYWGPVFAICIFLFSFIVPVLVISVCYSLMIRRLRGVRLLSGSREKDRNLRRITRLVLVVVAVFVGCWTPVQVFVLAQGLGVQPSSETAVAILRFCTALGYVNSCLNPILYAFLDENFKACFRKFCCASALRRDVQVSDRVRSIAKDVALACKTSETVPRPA
Chain of hERG ion channel (Q12809 whole entry): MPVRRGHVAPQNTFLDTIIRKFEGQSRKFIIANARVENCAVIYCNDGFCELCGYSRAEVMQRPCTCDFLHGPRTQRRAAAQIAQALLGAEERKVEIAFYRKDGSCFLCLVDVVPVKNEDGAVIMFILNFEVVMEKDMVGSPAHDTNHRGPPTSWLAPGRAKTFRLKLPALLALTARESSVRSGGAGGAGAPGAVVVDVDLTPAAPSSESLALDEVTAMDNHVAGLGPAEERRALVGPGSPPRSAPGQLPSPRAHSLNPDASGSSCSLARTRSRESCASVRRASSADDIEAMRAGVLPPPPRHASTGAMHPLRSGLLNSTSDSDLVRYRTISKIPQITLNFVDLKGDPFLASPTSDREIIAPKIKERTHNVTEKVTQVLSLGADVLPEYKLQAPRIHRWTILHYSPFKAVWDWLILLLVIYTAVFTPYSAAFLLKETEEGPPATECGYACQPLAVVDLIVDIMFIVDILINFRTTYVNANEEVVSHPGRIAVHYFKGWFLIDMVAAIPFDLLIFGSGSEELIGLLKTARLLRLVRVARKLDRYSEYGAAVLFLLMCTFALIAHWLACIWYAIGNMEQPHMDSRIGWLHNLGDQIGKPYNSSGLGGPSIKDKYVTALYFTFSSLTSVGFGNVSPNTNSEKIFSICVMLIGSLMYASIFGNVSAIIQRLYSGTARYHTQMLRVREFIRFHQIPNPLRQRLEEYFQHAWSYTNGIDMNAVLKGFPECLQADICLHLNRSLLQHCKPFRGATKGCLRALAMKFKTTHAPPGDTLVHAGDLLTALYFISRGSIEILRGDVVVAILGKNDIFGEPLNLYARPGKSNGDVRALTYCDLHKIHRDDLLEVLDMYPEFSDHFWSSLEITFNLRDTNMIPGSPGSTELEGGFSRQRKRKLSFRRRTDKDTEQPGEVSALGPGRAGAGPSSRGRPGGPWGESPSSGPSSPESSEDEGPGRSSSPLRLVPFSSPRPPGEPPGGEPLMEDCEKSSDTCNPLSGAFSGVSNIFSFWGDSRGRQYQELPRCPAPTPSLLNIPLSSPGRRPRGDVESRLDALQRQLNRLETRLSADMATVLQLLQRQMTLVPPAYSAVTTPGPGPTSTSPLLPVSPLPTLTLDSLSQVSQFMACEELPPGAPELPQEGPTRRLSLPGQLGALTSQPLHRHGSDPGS

## C[C@@H](Cc1ccsc1)NC(=O)NC[C@H](Cc1ccc(O)cc1)N(C)C [PZM21, 1-[(S)-2-(Dimethylamino)-3-(4-hydroxyphenyl)propyl]-3-((S)-1-(thiophen-3-yl)propan-2-yl)urea]
Nociceptin receptor
  nociceptin receptor agonist activity (in words): no detectable
μOR [1]
  Arrestin Emax % DAMGO: 15 % DAMGO
  β-arrestin2 recruitment in the absence of GRK2 (in words): no β-arrestin2 recruitment
hERG ion channel
  IC50: 2 to 4 µM
[2]; hot plate 52.5° C., PZM21 20 mg/kg, 20 mg/kg
  affective versus reflexive component of pain: only modulates the affective component of pain; also recorded: solely confers analgesia to the affective component of pain
[2]; hot-plate assay
  analgesic response in μOR knockout mice: completely ablates the observed analgesic response
[3]
  blood brain barrier penetration: substantial fraction of PZM21 crosses the blood brain barrier
C57BL/6J mice
  activity in formalin injection nociception assay: active
μOR [4]
  optimization from initial docking hit compound 7: 1000 fold
μOR [4]; Ki and EC50 of (S,S)-21 against compound 12
  improvement versus 12: 40 fold
